Where “and” joins values, the source holds several entries; their conditions need not be identical. Equal entries are not always repeated.
Key:
[1] = target: T1, mammalian gamma-glutamylcysteine synthetase (γ-GCS) (Homo sapiens, UniProt P48506); settings: cited from earlier work
T1 sequence (P48506 1-637): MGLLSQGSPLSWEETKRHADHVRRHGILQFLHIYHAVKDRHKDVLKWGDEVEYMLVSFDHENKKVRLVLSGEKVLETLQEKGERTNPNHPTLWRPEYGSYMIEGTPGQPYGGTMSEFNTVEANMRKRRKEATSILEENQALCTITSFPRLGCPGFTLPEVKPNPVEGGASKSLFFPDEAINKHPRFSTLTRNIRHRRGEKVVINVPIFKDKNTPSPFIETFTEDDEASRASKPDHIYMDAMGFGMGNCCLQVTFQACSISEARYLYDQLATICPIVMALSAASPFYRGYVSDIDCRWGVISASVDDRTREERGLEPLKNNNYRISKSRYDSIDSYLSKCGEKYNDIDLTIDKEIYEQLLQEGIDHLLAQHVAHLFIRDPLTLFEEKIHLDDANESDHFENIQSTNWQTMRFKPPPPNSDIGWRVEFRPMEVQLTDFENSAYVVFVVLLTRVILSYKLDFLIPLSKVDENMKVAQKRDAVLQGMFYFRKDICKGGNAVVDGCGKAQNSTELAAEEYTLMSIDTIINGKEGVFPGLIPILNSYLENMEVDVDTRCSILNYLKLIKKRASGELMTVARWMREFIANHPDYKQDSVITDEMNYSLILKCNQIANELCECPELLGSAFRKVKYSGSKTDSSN

[2] = cited from earlier work; for Estimtated Dose of L Isomer that Induces Convulsions in Mice (Relative to MSO): Table 1; for Estimtated Dose of L Isomer that Induces Convulsions in Mice (Relative to MSO) / Estimated Dose of L Isomer that Induces Convulsions in Mice (Relative to MSO): relative to MSO = 1; for Estimated Dose of L Isomer that Induces Convulsions in Mice (Relative to MSO): Table 3; for Dose that induces convulsions in mice relative to the dose of MSO: α-Et-MSO: convulsions in a minority of mice vs MSO in 100% of mice
[3] = target: mammalian glutamine synthetase (MGS) (Homo sapiens, UniProt P15104); settings: cited from earlier work
Sequence of mammalian glutamine synthetase (MGS) (P15104 2-373 limits assumed): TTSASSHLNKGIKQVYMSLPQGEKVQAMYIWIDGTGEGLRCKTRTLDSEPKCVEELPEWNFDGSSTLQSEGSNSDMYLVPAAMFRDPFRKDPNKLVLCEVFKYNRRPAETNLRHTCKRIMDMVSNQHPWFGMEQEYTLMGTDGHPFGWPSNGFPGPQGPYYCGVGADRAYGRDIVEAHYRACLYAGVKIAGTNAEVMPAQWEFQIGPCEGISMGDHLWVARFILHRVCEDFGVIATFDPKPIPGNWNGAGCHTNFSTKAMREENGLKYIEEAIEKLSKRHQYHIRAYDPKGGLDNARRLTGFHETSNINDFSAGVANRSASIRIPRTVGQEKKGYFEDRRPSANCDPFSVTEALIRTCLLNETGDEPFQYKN

[4] = test system: M. tuberculosis Erdman strain; settings: in vivo
M. tuberculosis Erdman = assay: M. tuberculosis growth in broth culture (CFU); assay type: cell-based; settings: for Inhibition of growth of M. tuberculosis in broth culture: 10, 100 or 1000 μM, 6 weeks; for Inhibition of growth of M. tuberculosis in broth culture / Inhibition of M. tuberculosis in broth culture relative to MSO: Example 7; for Efficacy against M. tuberculosis growth in broth culture in comparison with MSO: 10, 100, 1000 μM, Example 6, FIG. 4; for Inhibition of M. tuberculosis in broth culture relative to MSO: at each of 10, 100, 1000 μM
[5] = test system: M. tuberculosis Erdman in human macrophages (THP-1 cells); settings: 20, 200, 2000 μM, FIG. 5
[6] = cited from earlier work
[7] = BSO at doses that fully inhibit glutathione synthesis, guinea pigs; cited from earlier work

Structure (SMILES)	Inhibition of γ-GCS [1]	Estimtated Dose of L Isomer that Induces Convulsions in Mice (Relative to MSO) [2]	Estimated Dose of L Isomer that Induces Convulsions in Mice (Relative to MSO) [2]	Inhibition of mammalian GS [3]	Protection from weight loss, drug administered alone [4]	Inhibition of growth of M. tuberculosis in broth culture (M. tuberculosis Erdman)	Dose that induces convulsions in mice relative to the dose of MSO [2] [fold]	Inhibition of M. tuberculosis growth in human macrophages [5]	Metabolism [6]	Efficacy against M. tuberculosis growth in broth culture in comparison with MSO (M. tuberculosis Erdman)	Inhibition of M. tuberculosis in broth culture relative to MSO (M. tuberculosis Erdman)	other results
CS(=N)(=O)CC[C@H](N)C(=O)O (stereo partly drawn) [MSO, L-methionine-SR-sulfoximine]	inhibit γ-GCS	1	1	inhibit mammalian GS	protected animals from weight loss	inhibited M. tuberculosis	–	–	–	–	–	Fewer CFU of M. tuberculosis in organs than control animals [4]: approximately 1 log unit; Reduction of CFU of M. tuberculosis compared with control animals [4]: ~0.7 logs; Weight loss compared with untreated control animals [4]: protected from a precipitous decline in weight loss in the final week; Reduction of CFU in the lungs and spleen compared with untreated controls ([4]; ip): 2.5 logs; MTD in the presence of ascorbate relative to MTD in the absence of ascorbate (guinea pig, in vivo): 4 fold; Maximum tolerated dose for guinea pigs infected with M. tuberculosis (guinea pig, in vivo): 1.5 mg/kg/day; Tolerability (guinea pig, in vivo): early weight loss
CC(N)(CCS(C)(=N)=O)C(=O)O (racemic) [α-Me-MSO, α-methyl-DL-methionine-SR-sulfoximine]	inhibit γ-GCS	8	8	inhibit mammalian GS	–	inhibited M. tuberculosis	~8	readily inhibited	resistant to metabolism	as inhibitory to M. tuberculosis growth as MSO	slightly less inhibitory than MSO	–
CCCCS(=N)(=O)CCC(N)C(=O)O [BSO, D, L-Buthionine-SR-Sulfoximine, reference compound]	–	–	–	–	–	did not	–	–	–	–	–	Animals killed [7]: 100%
NNC(=O)c1ccncc1 [INH, isoniazid]	–	–	–	–	protected animals from weight loss	–	–	–	–	–	–	Reduction of CFU in lung and spleen below the level obtained with MSO [4]: ~1.5 logs and ~2.5 logs
CCC(N)(CCS(C)(=N)=O)C(=O)O (racemic) [α-Et-MSO, α-ethyl-DL-methionine-SR-sulfoximine]	specific to GS	>16	≧16	inhibit mammalian GS	–	inhibited M. tuberculosis	16	readily inhibited	resistant to metabolism	as inhibitory to M. tuberculosis growth as MSO	as inhibitory or slightly more inhibitory than MSO	–
O=C1O[C@H]([C@@H](O)CO)C(O)=C1O [ascorbate]	–	–	–	–	–	–	–	–	–	–	–	Well tolerated total dose of ascorbate (i.p., guinea pigs, 9 mmoles kg^−1 day^−1 not well tolerated): 3 mmol/kg/day

— patent US20040157802A1, “Anti-microbial agents derived from methionine sulfoximine analogues” (priority 2002, published 2004)
